# Laboratory results as given in US20250268948A1, “COMPOSITIONS AND METHODS FOR TREATING POST ACUTE SEQUELAE OF SARS-COV-2 INFECTION (LONG COVID)” (priority 2022, published 2025).
# Where two headings read alike, the source gives them in different places.
# How the values were obtained:
# [1] = system: human MSCs; experiment: Stem cell migration assay (percent closure of cell-free zone); conditions: for effect on MSC migration induced by curcumin and quercetin / effect on MSC migration induced by curcumin and resveratrol: 20 micromolar AMD3100 / 15 micromolar GM6001; for effect on MSC migration induced by curcumin and quercetin: FIG. 14; for effect on MSC migration induced by curcumin and resveratrol: FIG. 15; for EC50: Homo sapiens
# Experimental: FIG. 1 is a microphotograph depicting cell migration using fluorescent readout and cell tracker green as a fluorescent marker of human UC-MSCs. […] The EC50 was determined as a measure of effectiveness of activating agents. […] An initial analysis of the cell free zone using Image J software was used to screen concentrations of activating agents for dose-response determination in further experiments.
# The cell migration assays described above were set up as follows: One million cells/cell line were resuspended in 10 mL MSC-GRO™ serum free, quiescent medium (Vitro Biopharma Cat. No. SC00B17) containing […] mitomycin C (Sigma, Cat. No. M4287) to inhibit proliferation and incubated for 2 hours at room temperature with end-to-end agitation at 7 RPM. In some experiments, curcumin was used at 1 μM to block proliferation. Cells were centrifuged (450×g) for 7 minutes, washed with phosphate buffered saline (PBS) and then resuspended in 1 mL MSC-GRO™ low serum, complete 20 medium (Vitro Biopharma Cat. No. SC00B1) and plated at 25,000 cells/well in black 96 well, TC-coated cell culture plates, (ThermoScientific, Cat. No. 165305) containing cell seed-stoppers (Platypus, Cat. No. CMAUFL4) to form a cell free zone at the center of the well and incubated in 5% CO2, 1% O2, 94% N2 at 37° C. in a humidified chamber for 24 hrs. Plates used for culture of NSCs, were first treated with 10 μg/mL fibronectin (Sigma, Cat. No. F0556) for 2 hours at 37° C. Following washout with PBS (3×), cell seed stoppers were inserted, NSCs were plated at 25,000/well and incubated in 5% CO2, 1% O2, 94% N2 at 37° C. in a humidified chamber for 48 hrs. For studies of the effects of CXCR4 and MMP-9 inhibition, following 24 hours of cell culture, appropriate wells were dosed with 15 μM GM6001 and 20 μM AMD3100 for 6 hours. Cells were washed once with PBS then incubated in serum free, MSC-GRO™ (Vitro Biopharma Cat. No. SC00B17) containing 5 μM Cell Tracker Green CMFDA (Molecular Probes, Cat. No. C7025) at 37° C. for 30 minutes. The wells were then washed with serum free, MSC-Gro™ (Vitro Biopharma Cat. No. SC00B17) and incubated for 30 minutes at 37° C. Cells were washed once with PBS and this was replaced with MSC-GRO™ serum free, quiescent medium (Vitro Biopharma Cat. No. SC00B1I7) containing different concentrations of activating agents. […] A TOPSEAL™ (PerkinElmer, Cat. No. 6050195) covered the plate for live-cell imaging in a BioTek Cytation3 Imaging Reader. […] The gas phase throughout the acquisition of kinetic data was 5% O2, 5% CO2 with the balance nitrogen maintained by a BioTek CO2/O2 gas controller. Images were saved as TIFF files to calculate percent closure using imaging data.
# [2] = system: SIRT-1; experiment: qPCR gene expression analysis in human MSCs; assay type: cell-based; conditions: up to 2 weeks; for SIRT-1 expression increase: 250 μM VPA, 500 nM curcumin, FIG. 13
# Experimental: (§1) Beta actin was measured as a house-keeping gene. […] Gene expression was quantified by determining the amount of gene-specific DNA/total cDNA. Data are mean+/−SD of 4 replicates.
# (§2) Native human umbilical cord-derived MSCs (Vitro Biopharma Cat. No. SC00A1) were expanded from cryopreservation in a T-25 TC-coated flasks (BD Falcon, Cat. No. 353108) in MSC-GRO™ low serum, complete medium (Vitro Biopharma Cat. No. SC00BI). Cells were subcultured and counted on a Beckerman-Coulter Z2 particle counter (range 10 μm-30 μm). Cells were plated at 10,000/cm^2 a TC-coated Greiner Bio-One T75 flask and maintained in MSC-GRO™ serum free, complete medium (Vitro Biopharma Cat. No. SC00B3) in a reduced 02 environment (1% O2, 5% CO2, 94% N2) at 37° C. in a humidified chamber. The MSCs were treated continuously for up to 2 weeks. Cultures were fed every three days. Cells were harvested using ACCUTASE™ (Innovative Cell Technologies Inc., Cat No AT-104) and centrifuged (450×g) for 7 minutes. Cell supernatant was aspirated off and cells were resuspended in 1 mL PBS and counted on a Beckerman-Coulter Z2 particle counter (range 10 μm-30 μm). Total RNA was extracted using RNeasy Mini Kit (Qiagen Cat. No. 74104). RNA was quantified using an absorbance measurement at 260 nm. RNA was converted to cDNA using Quantitect Reverse Transcription Kit (Qiagen Cat. No. 205310) in a thermocycler. RNA was incubated in the gDNA elimination reaction for 2 minutes at 42° C. then incubated in the reverse-transcription master mix for 15 minutes at 42° C. Immediately after, it was incubated at 95° C. for 3 minutes for inactivation. cDNA was sent to an outside lab (CU-Anschutz Metabolic Laboratory) for q-PCR to detect relative or absolute gene expression levels. cDNA was diluted 1:5 and iTaq Universal Supermix fluorescent probe (BioRad Cat. No. 172-5120) used to detect the threshold cycle (Ct) during PCR. Dilution factors and cDNA concentrations were calculated into recorded values then normalized to untreated hMSCs (Vitro Biopharma Cat. No. SC00A1).
# (§3) Gene expression was quantified by determining the amount of gene-specific DNA/total cDNA. Data are mean+/−S.D. of 4 replicates.
# (§4) Native human umbilical cord-derived MSCs (Vitro Biopharma Cat. No. SCOOA1) were expanded from cryopreservation in a T-25 TC-coated flasks (BD Falcon, Cat. No. 353108) in MSC-GRO™ low serum, complete medium (Vitro Biopharma Cat. No. SC00B1). Cells were subcultured and counted on a Beckerman-Coulter Z2 particle counter (range 10 μm-30 μm). […] The MSCs were treated continuously for up to 2 weeks. Cultures were fed every three days. Cells were harvested using ACCUTASE™ (Innovative Cell Technologies Inc., Cat No AT-104) and centrifuged (450×g) for 7 minutes. Cell supernatant was aspirated off and cells were resuspended in 1 mL PBS and counted on a Beckerman-Coulter Z2 particle counter (range 10 μm-30 μm).
# (§5) Total RNA was extracted using RNeasy Mini Kit (Qiagen Cat. No. 74104). RNA was quantified using an absorbance measurement at 260 nm. RNA was converted to cDNA using Quantitect Reverse Transcription Kit (Qiagen Cat. No. 205310) in a thermocycler. RNA was incubated in the DNA elimination reaction for 2 minutes at 42° C. then incubated in the reverse-transcription master mix for 15 minutes at 42° C. Immediately after, it was incubated at 95° C. for 3 minutes for inactivation. cDNA was sent to an outside lab (CU-Anschutz Metabolic Laboratory) for q-PCR to detect relative or absolute gene expression levels. cDNA was diluted 1:5 and iTaq Universal Supermix fluorescent probe (BioRad Cat. No. 172-5120) used to detect the threshold cycle (Ct) during PCR. Dilution factors and cDNA concentrations were calculated into recorded values then normalized to untreated hMSCs (Vitro Biopharma Cat. No. SC00A1).
# [3] = system: FGF-21; experiment: qPCR gene expression analysis in human MSCs; assay type: cell-based; conditions: for FGF-21 expression increase: 250 μM VPA, 500 nM curcumin, up to 2 weeks, FIG. 13
# Experimental: as §1, §2, §3, §4, §5
# [4] = system: Oct 3/4; experiment: qPCR gene expression analysis in human MSCs; assay type: cell-based; conditions: for Oct 3/4 expression increase: 250 μM VPA, 500 nM curcumin, compared to beta-actin, FIG. 13
# Experimental: as §1, §2, §3, §4, §5
# [5] = system: Hsp70; experiment: qPCR gene expression analysis in human MSCs; assay type: cell-based; conditions: for Hsp70 expression increase: 250 μM VPA, 500 nM curcumin, up to 2 weeks, FIG. 13
# Experimental: as §3, §4, §5
# [6] = system: CXCR4; experiment: qPCR gene expression analysis in human MSCs; assay type: cell-based; conditions: for CXCR4 expression increase: 250 μM VPA, 500 nM curcumin, up to 2 weeks, FIG. 13
# Experimental: as §3, §4, §5
# [7] = system: MSCs; experiment: Cell-based proliferation assay (Presto Blue); conditions: Homo sapiens
# Experimental: (§6) The effects of fibroblast growth factor 2 (FGF-2), lithium, and VPA on stem cell proliferation were then investigated, using an assay based on Presto Blue, a fluorescent marker of cellular reduction. FIG. 8 is a line graph representation illustrating proliferation of different cell lines induced by increasing concentrations of FGF-b (FGF-2) after a 5 day exposure. Relative fluorescent units were measured using a FITC filter on a Modulus Microplate Reader and plotted as a function of FGF-2. The data were modeled by sigmoidal curve fitting to calculate EC50 values. […] Proliferation of these mesenchymal cells was stimulated by recombinant human FGF-2 with EC50 values in the range of 3 ng/mL to 6 ng/mL with maximal proliferative responses at about 10 ng/mL.
# [8] = system: human fibroblast; conditions: read-out: EC50, human fibroblast migration induced by substance P, prior study; suspension culture system; Parenti et al. 1996; cited from earlier work
# [9] = system: CAFs, primary fibroblasts and MSCs; experiment: Cell-based proliferation assay (Presto Blue); parameters: species or system human; conditions: 5 day exposure; FIG. 8
# Experimental: as §6
# [10] = curcumin at 500 nM, statistically significant
molecule,measurement,setting,value
c1cc(CN2CCCNCCNCCCNCC2)ccc1CN1CCCNCCNCCCNCC1 [AMD3100],effect on VPA-induced CB-MSC migration,"[1]; 20 μM AMD3100, CXCR-4 inhibitor, FIG. 7",blocked the VPA-induced CB-MSC migration
same,effect on MSC migration induced by curcumin and quercetin,[1],blocked MSC migration
same,effect on MSC migration induced by curcumin and resveratrol,[1],blocked MSC migration
CNC(=O)[C@H](Cc1c[nH]c2ccccc12)NC(=O)[C@@H](CC(=O)NO)CC(C)C [GM6001],effect on lithium induced CB-MSC migration,"[1]; 15 μM GM6001, MMP-9 inhibitor, FIG. 7",blocked lithium induced CB-MSCs
same,effect on MSC migration induced by curcumin and quercetin,[1],blocked MSC migration
same,effect on MSC migration induced by curcumin and resveratrol,[1],blocked MSC migration
CCCC(=O)[O-].[Na+] [Na butyrate],SIRT-1 expression increase,[2],significantly less effective
same,FGF-21 expression increase,[3],lower levels
same,Oct 3/4 expression increase,[4]; up to 2 weeks,less expression activation
same,Hsp70 expression increase,[5],lower levels
same,CXCR4 expression increase,[6],lower levels
CC(/C=C/C(=O)NO)=C\[C@@H](C)C(=O)c1ccc(N(C)C)cc1 [TSA],SIRT-1 expression increase,[2],significantly less effective
same,FGF-21 expression increase,[3],lower levels
same,Oct 3/4 expression increase,[4]; up to 2 weeks,less expression activation
same,Hsp70 expression increase,[5],lower levels
same,CXCR4 expression increase,[6],lower levels
"CCCC(CCC)C(=O)O [VPA, valproic acid]",EC50,"[1]; read-out: EC50, migration, increasing VPA in 200 μM lithium, MSCs, FIG. 6",36 µM
same,concentration of maximum closure,"[1]; VPA alone, FIG. 5",100 µM
same,EC50,"[7]; 120 h, increasing VPA in 200 μM lithium, MSCs, 5 day exposure, FIG. 10, read-out: EC50, proliferation",39 µM
same,EC50,"[7]; in the presence of 200 μM lithium, MSCs and NSCs, range over migration and proliferation assays, read-out: VPA concentration 50% effective in inducing cell proliferation and migration",35 to 39 µM
same,EC50,"[7]; in the presence of 200 μM lithium, MSCs and NSCs, read-out: VPA concentration 50% effective in inducing cell proliferation and migration, mean",37 µM
same,SIRT-1 expression increase vs untreated MSC,"[2]; 31.25 μM VPA, 200 μM lithium, FIG. 11",~300 fold
same,Oct 3/4 expression increase vs untreated human MSCs,"[4]; 31.25 μM VPA, 200 μM lithium, up to 2 weeks, FIG. 11",about 20 fold
same,Oct 3/4 expression increase,[4]; up to 2 weeks,about 20 fold
COc1cc(/C=C/C(=O)CC(=O)/C=C/c2ccc(O)c(OC)c2)ccc1O [curcumin],concentration at which curcumin blocked migration by apparent toxicity,"[1]; 36-hour run, FIG. 4",greater than 1 μM
same,"estimated LD50 (apparent toxicity, reduced cell number)","[1]; 36-hour run, FIG. 4",3 µM
same,EC50,"[1]; 36 h, read-out: apparent EC50, curcumin-induced migration",0.25 µM
same,FGF-21 expression increase compared to untreated cells,[3]; [10],at least 20 fold
same,Oct 3/4 expression increase,[4]; up to 2 weeks,about 20 fold
same,Oct 3/4 expression increase compared to untreated cells,[4]; [10],at least 10 fold
same,Hsp70 expression increase compared to untreated cells,[5]; [10],at least 20 fold
same,CXCR-4 expression increase compared to untreated cells,[6]; [10],at least 20 fold
CSCC[C@H](NC(=O)[C@H](CC(C)C)NC(=O)CNC(=O)[C@H](Cc1ccccc1)NC(=O)[C@H](Cc1ccccc1)NC(=O)[C@H](CCC(N)=O)NC(=O)[C@H](CCC(N)=O)NC(=O)[C@@H]1CCCN1C(=O)[C@H](CCCCN)NC(=O)[C@@H]1CCCN1C(=O)[C@@H](N)CCCNC(=N)N)C(N)=O [substance P],EC50,[8],0.0022 µM
same,MSC migration into cell-free zone,"[1]; 3.7 nM substance P, 24 hours, human UC-MSCs, FIG. 1",induced MSC migration into the cell-free center of the well
same,migration (percent closure) dose-response,"[1]; CB-MSCs, 0 to 18.5 nM, 24-hour live cell analysis, FIG. 2",migration increased in a dose-dependent manner
CCCCC(=O)O [valeric acid],SIRT-1 expression increase,[2],significantly less effective
same,FGF-21 expression increase,[3],lower levels
same,Oct 3/4 expression increase,[4]; up to 2 weeks,less expression activation
same,Hsp70 expression increase,[5],lower levels
same,CXCR4 expression increase,[6],lower levels
FGF-2: recombinant human fibroblast growth factor 2,concentration of maximal proliferative responses,[9],about 10 ng/mL
